Assay results from publication PMC4599074 (Drug Design, Development and Therapy, 2015).

Assays:
MAO-B [1] = target: T1, MAO-B (Homo sapiens, UniProt P27338); settings: for SI (selectivity index for the MAO-B isoform): ratio IC50 (MAO-A)/IC50 (MAO-B)
T1 sequence (P27338 1-520): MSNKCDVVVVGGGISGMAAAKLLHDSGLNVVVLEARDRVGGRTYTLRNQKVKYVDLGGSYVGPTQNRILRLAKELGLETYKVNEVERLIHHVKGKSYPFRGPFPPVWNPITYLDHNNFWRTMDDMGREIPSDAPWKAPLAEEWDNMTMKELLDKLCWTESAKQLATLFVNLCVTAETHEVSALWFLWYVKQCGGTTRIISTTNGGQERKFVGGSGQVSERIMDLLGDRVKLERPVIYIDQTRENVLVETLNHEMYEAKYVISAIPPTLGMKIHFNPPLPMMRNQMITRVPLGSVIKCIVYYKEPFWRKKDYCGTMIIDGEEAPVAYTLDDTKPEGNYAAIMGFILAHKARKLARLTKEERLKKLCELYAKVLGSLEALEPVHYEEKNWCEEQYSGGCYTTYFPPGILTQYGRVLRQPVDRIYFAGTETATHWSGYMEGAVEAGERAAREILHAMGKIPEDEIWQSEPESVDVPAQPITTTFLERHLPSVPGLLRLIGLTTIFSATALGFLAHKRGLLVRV

MAO-A [2] = target: T2, MAO-A (Homo sapiens, UniProt P21397); assay: biochemical
T2 sequence (P21397 1-527): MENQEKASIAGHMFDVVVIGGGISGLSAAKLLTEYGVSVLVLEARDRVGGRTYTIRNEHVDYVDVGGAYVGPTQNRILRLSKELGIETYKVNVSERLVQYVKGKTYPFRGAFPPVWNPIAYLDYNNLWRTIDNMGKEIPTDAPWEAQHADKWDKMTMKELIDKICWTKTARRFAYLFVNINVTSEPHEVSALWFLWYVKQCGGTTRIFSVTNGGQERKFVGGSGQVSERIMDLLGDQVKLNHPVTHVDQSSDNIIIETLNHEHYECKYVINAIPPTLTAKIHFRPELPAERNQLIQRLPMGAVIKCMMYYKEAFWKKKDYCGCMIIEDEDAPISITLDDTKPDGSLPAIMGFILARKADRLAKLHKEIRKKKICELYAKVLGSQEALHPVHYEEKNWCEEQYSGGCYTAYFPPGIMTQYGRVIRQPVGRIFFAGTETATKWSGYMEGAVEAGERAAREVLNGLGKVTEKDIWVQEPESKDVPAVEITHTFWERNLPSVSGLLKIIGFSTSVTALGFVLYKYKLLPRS

MAO-B [3] = target: T1, MAO-B; assay: biochemical
MAO-B [4] = target: T1, MAO-B; assay: Reversibility of MAO-B inhibition by dialysis of enzyme/inhibitor mixtures; assay type: biochemical; settings: for residual MAO-B activity after dialysis (% of negative control): combined with MAO-B 15 minutes, dialyzed 24 hours, 5g at 4× IC50
MAO-A [5] = target: T2, MAO-A; settings: from IC50 values
MAO-A [6] = target: T2, MAO-A; assay: Reversibility of MAO-A inhibition by dialysis of enzyme/inhibitor mixtures; settings: for residual MAO-A activity after dialysis (% of negative control): combined with MAO-A 15 minutes, dialyzed 24 hours
MAO-B [7] = target: T1, MAO-B; settings: read-out: Km for oxidation by MAO-B; substrate Km, previous studies; cited from earlier work
MAO-A [8] = target: T2, MAO-A; settings: read-out: Km for oxidation by MAO-A; substrate Km, previous studies; cited from earlier work
MAO-B [9] = target: T1, MAO-B; assay: Lineweaver–Burk plots, mode of inhibition and Ki for MAO-B; settings: Ki for the inhibition of MAO-B, global (shared) fitting to the Michaelis–Menten equation, r2 = 0.99
[10] = undialyzed, inhibitor at 4× IC50

Compound | SI (selectivity index for the MAO-B isoform) (MAO-B [1]) | IC50 (MAO-A [2]) [µM] | IC50 (MAO-B [3]) [nM] | also measured
Cc1cccc(COc2ccc3c(c2)OCC3=O)c1 [5m, 6-(3-Methylbenzyloxy)-2H-1-benzofuran-3-one] | 646 | 62 ± 16.9 | 96 ± 3 | –
O=C1COc2cc(OCc3cccc(Cl)c3)ccc21 [5e, 6-(3-Chlorobenzyloxy)-2H-1-benzofuran-3-one] | 1,558 | 18.7 ± 7.82 | 12 ± 3 | –
(R)-deprenyl [reference compound] | – | – | – | residual MAO-B activity after dialysis (% of negative control) (MAO-B [4]): 3.1%
O=C1COc2cc(OCc3cccc(F)c3)ccc21 [5c, 6-(3-Fluorobenzyloxy)-2H-1-benzofuran-3-one] | 593 | 80.7 ± 9.22 | 136 ± 30 | –
N#Cc1ccc(COc2ccc3c(c2)OCC3=O)cc1 [5j, 6-(4-Cyanobenzyloxy)-2H-1-benzofuran-3-one] | 63 | 5.01 ± 0.919 | 79 ± 19 | –
N#Cc1cccc(COc2ccc3c(c2)OCC3=O)c1 [5k, 6-(3-Cyanobenzyloxy)-2H-1-benzofuran-3-one] | 3.5 | 0.586 ± 0.133 | 166 ± 15 | fold more potent MAO-A inhibitor than toloxatone (MAO-A [5]): sixfold; residual MAO-A activity after dialysis (% of negative control) (MAO-A [6]; inhibitor at 4× IC50): 109%; reversibility of MAO-A inhibition (MAO-A [6]; dialysis 24 hours): reversible; residual MAO-A activity of undialyzed mixtures (% of negative control) (MAO-A [6]; [10]): 65%
O=C1COc2cc(OCc3ccc(Cl)cc3)ccc21 [5d, 6-(4-Chlorobenzyloxy)-2H-1-benzofuran-3-one] | 115 | 2.19 ± 0.135 | 19 ± 7 | –
O=C1COc2cc(OCc3ccc(F)cc3)ccc21 [5b, 6-(4-Fluorobenzyloxy)-2H-1-benzofuran-3-one] | 518 | 11.4 ± 2.54 | 22 ± 3 | –
Cc1ccc(COc2ccc3c(c2)OCC3=O)cc1 [5l, 6-(4-Methylbenzyloxy)-2H-1-benzofuran-3-one] | >1,852 | > 100 | 54 ± 11 | –
O=C1COc2cc(OCc3ccc(C(F)(F)F)cc3)ccc21 [5n, 6-[4-(Trifluoromethyl)benzyloxy]-2H-1-benzofuran-3-one] | >2,564 | > 100 | 39 ± 5 | –
NCCC(=O)c1ccccc1N [kynuramine] | – | – | – | Km (MAO-B [7]): 29 µM; Km (MAO-A [8]): 41 µM
O=C1COc2cc(OCc3ccc(I)cc3)ccc21 [5h, 6-(4-Iodobenzyloxy)-2H-1-benzofuran-3-one] | – | > 100 | 28 ± 6 | –
O=C1COc2cc(OCCOc3ccccc3)ccc21 [5q, 6-(2-Phenoxyethoxy)-2H-1-benzofuran-3-one] | >2,000 | > 100 | 50 ± 6 | –
O=C1COc2cc(OCCc3ccccc3)ccc21 [5o, 6-(2-Phenylethoxy)-2H-1-benzofuran-3-one] | 129 | 13.8 ± 2.11 | 107 ± 10 | –
Cc1ccc(CCOc2ccc3c(c2)OCC3=O)cc1 [5s, 6-[2-(4-Methylphenyl)ethoxy]-2H-1-benzofuran-3-one] | 11 | 11.3 ± 0.683 | 1050 ± 147 | –
O=C1COc2cc(OCc3ccc(Br)cc3)ccc21 [5f, 6-(4-Bromobenzyloxy)-2H-1-benzofuran-3-one] | 175 | 2.8 ± 0.079 | 16 ± 3 | –
O=C1COc2cc(OCc3cccc(Br)c3)ccc21 [5g, 6-(3-Bromobenzyloxy)-2H-1-benzofuran-3-one] | 980 | 3.92 ± 0.827 | 4 ± 1 | residual MAO-B activity after dialysis (% of negative control) (MAO-B [4]): 87%; reversibility of MAO-B inhibition (MAO-B [4]; dialysis 24 hours): reversible MAO-B inhibitor; residual MAO-B activity of undialyzed mixtures (% of negative control) (MAO-B [4]; [10]): 42%; fold more potent MAO-B inhibitor than lazabemide (MAO-B [1]; from IC50 values): 22 fold; Ki (MAO-B [9]): 3.4 ± 0.3 nM
Cc1cccc(CCOc2ccc3c(c2)OCC3=O)c1 [5t, 6-[2-(3-Methylphenyl)ethoxy]-2H-1-benzofuran-3-one] | 143 | 25.9 ± 8.72 | 181 ± 21 | –
O=C1COc2cc(OCc3ccccc3)ccc21 [5a, 6-(Benzyloxy)-2H-1-benzofuran-3-one] | 431 | 26.7 ± 0.351 | 62 ± 11 | –
O=C1COc2cc(O)ccc21 [compound 6, 6-Hydroxy-3-coumaranone, reference compound] | – | > 100 | 12000 ± 4210 | fold weaker as MAO-B inhibitor compared to 5a (MAO-B [1]; from IC50 values): 193 fold
O=C1COc2cc(OCCc3ccc(Br)cc3)ccc21 [5r, 6-[2-(4-Bromophenyl)ethoxy]-2H-1-benzofuran-3-one] | 4.7 | 2.65 ± 0.629 | 564 ± 49 | –
O=C1COc2cc(OCc3cccc(I)c3)ccc21 [5i, 6-(3-Iodobenzyloxy)-2H-1-benzofuran-3-one] | 1,081 | 7.57 ± 1.82 | 7 ± 1 | –
C#CCN(C)Cc1ccccc1 [pargyline, reference compound] | – | – | – | residual MAO-A activity after dialysis (% of negative control) (MAO-A [6]; inhibitor at 4× IC50): 1.6%
O=C1COc2cc(OCCCc3ccccc3)ccc21 [5p, 6-(3-Phenylpropoxy)-2H-1-benzofuran-3-one] | 215 | 11.8 ± 0.93 | 55 ± 8 | –
